Reference: patent US20190119284A1, “ErbB Inhibitors and Uses Thereof” (The Regents of the University of California, priority 2016, published 2019)
Read-outs that look alike come from different tables or passages of the source.

Key:
PDK1 = biological target: T1, PDK1 (Homo sapiens, UniProt O15530); assay: Nanosyn in vitro kinase profiling: PDK1; assay type: biochemical; details: for inhibition at 1 µM: compound at 1 μM
T1 sequence (O15530 1-556): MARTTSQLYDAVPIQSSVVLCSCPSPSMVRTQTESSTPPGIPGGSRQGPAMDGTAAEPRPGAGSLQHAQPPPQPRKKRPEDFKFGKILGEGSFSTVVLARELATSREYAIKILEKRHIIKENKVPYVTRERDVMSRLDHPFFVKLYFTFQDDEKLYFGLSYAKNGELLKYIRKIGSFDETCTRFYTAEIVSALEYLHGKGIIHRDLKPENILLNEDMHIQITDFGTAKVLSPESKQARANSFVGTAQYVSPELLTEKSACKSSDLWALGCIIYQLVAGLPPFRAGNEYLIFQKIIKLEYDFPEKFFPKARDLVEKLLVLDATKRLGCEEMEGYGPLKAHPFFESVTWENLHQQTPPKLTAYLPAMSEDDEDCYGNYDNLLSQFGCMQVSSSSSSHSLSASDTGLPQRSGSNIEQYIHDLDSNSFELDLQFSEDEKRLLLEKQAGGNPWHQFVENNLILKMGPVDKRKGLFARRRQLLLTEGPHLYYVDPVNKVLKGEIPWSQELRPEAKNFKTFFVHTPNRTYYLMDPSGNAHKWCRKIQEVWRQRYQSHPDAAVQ
Description: (§1) This was confirmed by in vitro profiling against a panel of kinases, with compound 2 only showing potent inhibition of EGFR and Ab1 (Table 2).
(§2) In vitro Kinome Screen. In vitro profiling of compound 2 at 100 nM was conducted by Nanosyn.

[1] = biological target: 2YF/3wt + NRG Ba/F3 cells (HER2YF/HER3wt) (Homo sapiens, UniProt P04626, Y1005F/Y1023F/Y1112F/Y1127F/Y1139F/Y1196F/Y1221F/Y1222F/Y1248F, cells depend on it); assay: Ba/F3 proliferation assay, 2YF/3wt + NRG; assay type: cell-based
Outline: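 Ba/F3 cells stably expressing HER3 and HER2 with 9 C-terminal Tyr→Phe mutations, selected for NRG dependence after IL-3 withdrawal. Cells were given DMSO or compound plus NRG (50 ng/mL final); proliferation normalized to DMSO, fit by log(inhibitor) vs response with variable slope.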

MST1 = biological target: T2, MST1 (Homo sapiens, UniProt Q13043); assay: Nanosyn in vitro kinase profiling: MST1; assay type: biochemical; details: for inhibition at 1 µM: compound at 1 μM
T2 sequence (Q13043 1-487): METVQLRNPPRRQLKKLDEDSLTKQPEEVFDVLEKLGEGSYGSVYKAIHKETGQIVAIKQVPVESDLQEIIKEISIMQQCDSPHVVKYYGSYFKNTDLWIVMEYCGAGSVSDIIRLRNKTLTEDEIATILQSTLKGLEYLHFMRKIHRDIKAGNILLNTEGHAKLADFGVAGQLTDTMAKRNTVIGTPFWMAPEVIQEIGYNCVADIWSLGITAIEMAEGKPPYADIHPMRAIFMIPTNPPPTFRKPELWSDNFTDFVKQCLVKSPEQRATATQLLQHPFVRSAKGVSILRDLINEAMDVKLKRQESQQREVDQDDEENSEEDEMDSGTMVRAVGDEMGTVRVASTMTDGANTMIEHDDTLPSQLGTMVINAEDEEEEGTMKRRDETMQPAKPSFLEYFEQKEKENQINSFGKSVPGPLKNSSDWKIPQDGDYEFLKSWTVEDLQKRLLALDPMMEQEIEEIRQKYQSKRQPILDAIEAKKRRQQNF
Description: as §1, §2

SYK = SYK (Homo sapiens, UniProt P43405); assay: Nanosyn in vitro kinase profiling: SYK; assay type: biochemical; details: for inhibition at 1 µM: compound at 1 μM
Description: as §1, §2

2YF/3wt + NRG Ba/F3 cells (HER2YF/HER3wt), sequence (P04626 whole entry Y1005F/Y1023F/Y1112F/Y1127F/Y1139F/Y1196F/Y1221F/Y1222F/Y1248F): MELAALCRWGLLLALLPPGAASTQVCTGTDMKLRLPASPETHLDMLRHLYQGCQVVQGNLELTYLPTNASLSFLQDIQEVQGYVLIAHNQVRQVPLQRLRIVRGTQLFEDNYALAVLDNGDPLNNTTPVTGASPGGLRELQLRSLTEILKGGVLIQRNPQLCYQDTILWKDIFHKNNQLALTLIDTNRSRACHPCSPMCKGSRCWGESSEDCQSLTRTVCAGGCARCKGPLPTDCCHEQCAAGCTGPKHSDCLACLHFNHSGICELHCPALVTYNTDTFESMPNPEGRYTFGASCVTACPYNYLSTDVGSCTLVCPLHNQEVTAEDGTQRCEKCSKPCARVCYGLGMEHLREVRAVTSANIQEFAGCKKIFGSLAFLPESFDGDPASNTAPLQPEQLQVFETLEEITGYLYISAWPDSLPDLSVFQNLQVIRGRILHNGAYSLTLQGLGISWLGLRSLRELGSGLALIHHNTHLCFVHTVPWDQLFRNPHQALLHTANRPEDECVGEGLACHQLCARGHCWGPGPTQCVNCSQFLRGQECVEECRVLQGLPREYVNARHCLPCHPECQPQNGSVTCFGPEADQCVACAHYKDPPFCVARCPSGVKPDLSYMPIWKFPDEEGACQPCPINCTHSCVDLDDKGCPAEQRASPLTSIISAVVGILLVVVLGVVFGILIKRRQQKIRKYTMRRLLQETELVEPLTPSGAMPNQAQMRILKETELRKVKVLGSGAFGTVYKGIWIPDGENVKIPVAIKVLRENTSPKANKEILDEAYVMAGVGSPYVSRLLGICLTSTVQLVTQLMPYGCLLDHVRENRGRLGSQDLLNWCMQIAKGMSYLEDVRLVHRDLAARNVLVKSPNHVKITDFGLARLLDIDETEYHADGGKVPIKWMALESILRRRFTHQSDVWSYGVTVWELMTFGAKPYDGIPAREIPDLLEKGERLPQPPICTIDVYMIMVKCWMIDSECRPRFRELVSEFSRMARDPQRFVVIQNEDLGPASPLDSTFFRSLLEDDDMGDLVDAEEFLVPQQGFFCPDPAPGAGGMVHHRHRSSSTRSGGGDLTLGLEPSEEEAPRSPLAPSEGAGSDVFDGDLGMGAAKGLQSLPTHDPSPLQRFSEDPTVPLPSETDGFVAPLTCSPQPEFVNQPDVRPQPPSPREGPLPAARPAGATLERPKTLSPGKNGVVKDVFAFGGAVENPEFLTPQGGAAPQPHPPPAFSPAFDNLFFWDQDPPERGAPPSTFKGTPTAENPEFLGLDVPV

| inhibition at 1 µM (PDK1) [%] | GI50 ([1]; Table 4; ± S.D., n = 3; 48 h Cell Titer Glo; read-out: IC50, 2YF/3wt + NRG) [nM] | inhibition at 1 µM (MST1) [%] | inhibition at 1 µM (SYK) [%] | inhibition at 0.1 µM (PDK1; compound at 100 nM) [%] | inhibition at 0.1 µM (MST1; compound at 100 nM) [%] | inhibition at 0.1 µM (SYK; compound at 100 nM) [%] | Compound | GI50 ([1]; read-out: IC50, 2YF/3wt + NRG; Table 4; ± S.D., n = 3; 48 h Cell Titer Glo) [nM] |
| --- | --- | --- | --- | --- | --- | --- | --- | --- |
| 5 | 6.8 ± 0.2 | 84 | 35 | – | – | – | COc1ccc(-c2ccoc2)cc1Nc1ncnc2[nH]cc(-c3cc[nH]n3)c12 [compound 3, N-(5-(furan-3-yl)-2-methoxyphenyl)-5-(1H-pyrazol-3-yl)-7H-pyrrolo[2,3-d]pyrimidin-4-amine] | – |
| 18.3 | – | 19.9 | -6.41 | 4.58 | 3.85 | -2.12 | COc1ccc(-c2ccco2)cc1Nc1ncnc2[nH]nc(-c3ccco3)c12 [compound 2, 3-(furan-2-yl)-N-(5-(furan-2-yl)-2-methoxyphenyl)-1H-pyrazolo[3,4-d]pyrimidin-4-amine] | – |
| – | – | – | – | – | – | – | CS(=O)(=O)CCNCc1ccc(-c2ccc3ncnc(Nc4ccc(OCc5cccc(F)c5)c(Cl)c4)c3c2)o1 [lapatinib] | 63.6 ± 12.5 |
